# Assays:
# Sclerotinia sclerotiorum = assay: Agar well inhibition zone, Sclerotinia sclerotiorum (Ss); format: cell-based; details: Sclerotinia sclerotiorum, 72 h, 15 μl per well, 3 days at 25° C.
# Procedure: Sclerotinia sclerotiorum (Ss) white mould disease, stem rot
# (§1) Each of the above mentioned 9 pathogens were separately innoculated into 100 ml of potato dextrose (PD) bouillon and shaken at 200 rpm at 25° C. for 7 days. The mycelium was harvested and homogenized for about 10 seconds in a Warring blender and 1-5 ml of the blended mycelium was transferred to petri dishes with a diameter of 14 cm. […] 20 ml of potato dextrose agar (PDA) having a temperature of 45° C. were poured into each of the petri dishes and thorougly mixed with the blended mycelium present therein. When the agar had solidified, wells of a diameter of 4 mm were punched in the agar, and 15 μl of test solutions containing varicus concentrations of compound Ia, Ib and IIa dissolved in ethanol was applied to each well. The plates were incubated for three days at 25° C. and the inhibition zones measured (in mm). […]
# Alternaria alternata = assay: Agar well inhibition zone, Alternaria alternata (Aa); format: cell-based; details: Alternaria alternata, 72 h, 15 μl per well, 3 days at 25° C.
# Procedure: Alternaria alternata (Aa) black mould coverings, leaf spot
# (§2) Each of the above mentioned 9 pathogens were separately innoculated into 100 ml of potato dextrose (PD) bouillon and shaken at 200 rpm at 25° C. for 7 days. The mycelium was harvested and homogenized for about 10 seconds in a Warring blender and 1-5 ml of the blended mycelium was transferred to petri dishes with a diameter of 14 cm. […] 20 ml of potato dextrose agar (PDA) having a temperature of 45° C. were poured into each of the petri dishes and thorougly mixed with the blended mycelium present therein. When the agar had solidified, wells of a diameter of 4 mm were punched in the agar, and 15 μl of test solutions containing varicus concentrations of compound Ia, Ib and IIa dissolved in ethanol was applied to each well. The plates were incubated for three days at 25° C. and the inhibition zones measured (in mm).
# (§3) The experiments were repeated and in the second run, Bc plates were made from Bc spores (the plates were termed Bc2) as such plates may result in a more uniform growth.
# Phoma lingam = assay: Agar well inhibition zone, Phoma lingam (Pl); format: cell-based; details: Plenodomus lingam, 72 h, 15 μl per well, 3 days at 25° C., read-out: inhibition zone P1
# Procedure: Phoma lingam (Pl) canker and dry rot
# as §1
# Pyrenophora teres = assay: Agar well inhibition zone, Pyrenophora teres (Pt); format: cell-based; set-up: key to inhibition zone Pt: clear; diffuse; very diffuse; +: very weak; details: 15 μl per well, 3 days at 25° C.
# Procedure: Pyrenophora teres (Pt) net blotch disease
# as §1
# Phoma betae = assay: Agar well inhibition zone, Phoma betae (Pb); format: cell-based; details: Neocamarosporium betae, 72 h, 15 μl per well, 3 days at 25° C.
# Procedure: Phoma betae (Pb) seedling black rot, black leg
# as §1
# [1] = tested on: mouse peritoneal macrophage; assay: Mouse peritoneal macrophage assay, cellular ATP (viability); format: cell-based
# Ascochyta pisi = assay: Agar well inhibition zone, Ascochyta pisi (Ap); format: cell-based; details: Ascochyta pisi, 72 h, 15 μl per well, 3 days at 25° C.
# Procedure: Ascochyta pisi (Ap) leaf, stem and pod rot
# as §1
# Botrytis cinerea [2] = assay: Agar well inhibition zone, Botrytis cinerea, plates made from spores (Bc2); format: cell-based
# Procedure: (§4) Botrytis cinerea (Bc) grey mould
# as §2, §3
# plant pathogenic fungi = assay: In vitro fungicidal activity spectrum over the pathogens tested; format: cell-based
# Procedure: The following pathogens were used:
# as §2, §3
# Botrytis cinerea [3] = assay: Agar well inhibition zone, Botrytis cinerea, mycelium plates (Bc1); format: cell-based; set-up: key to inhibition zone Bc1: clear; diffuse; very diffuse; +: very weak; details: 15 μl per well, 3 days at 25° C.
# Procedure: as §4, §1
# Monilinia fructigena = assay: Agar well inhibition zone, Monilinia fructigena (Mf); format: cell-based; details: Monilinia fructigena, 72 h, 15 μl per well, 3 days at 25° C.
# Procedure: Monilinia fructigena (Mf) brown rot, fruit rot
# as §1
# [4] = tested on: mouse peritoneal macrophage; assay: Mouse peritoneal macrophage assay, chemiluminescence (phagocytosis); format: cell-based
# Botrytis cinerea [5] = assay: Fungicidal activity in vivo against Botrytis cinerea on sprayed plants; details: spray to run off, assessed after 6 days
# Procedure: Activity of the compounds Ia and Ib against Botrytis cinerea Host: Lycopersicon esculentum (tomato, var. First in Field) […] plants (5 weeks old) were sprayed to run off with liquid solutions using a handhold sprayer (Bink Bullows 900). The solution (70% EtOH) had different concentrations of the compounds Ia and Ib. The plants were kept 24 hours in a green house to dry before they were inoculated with a spore suspension containing 1×10^5 spores/ml in 25% grape juice. The inoculation was carried out with a handhold atomizer (Wagner, Pico Bel). The plants were then incubated (16 hours light (1000 lux) and 8 hours dark) at 15°-20° C. in clear polyethylene bags to raise the relative humidity to 95-100%. After 6 days the assessment was done.
smiles,measurement,setting,value
C[C@@H]1Cc2cc(O)cc(O)c2C(=O)O[C@H](C)CC(=O)O[C@H](CO)CC(=O)O[C@H](C)Cc2cc(O)cc(O)c2C(=O)O[C@H](C)CC(=O)O1 [Compound Ia],zone of inhibition at 10 µg/mL,Sclerotinia sclerotiorum; 0.01 mg/ml,0 mm
same,zone of inhibition at 50 µg/mL,Sclerotinia sclerotiorum; 0.05 mg/ml,24 mm
same,zone of inhibition at 500 µg/mL,Sclerotinia sclerotiorum; 0.5 mg/ml,42 mm
same,zone of inhibition at 1000 µg/mL,Sclerotinia sclerotiorum; 1.0 mg/ml,50 mm
same,zone of inhibition at 10 µg/mL,Alternaria alternata; 0.01 mg/ml,0 mm
same,zone of inhibition at 50 µg/mL,Alternaria alternata; 0.05 mg/ml,0 mm
same,zone of inhibition at 500 µg/mL,Alternaria alternata; 0.5 mg/ml,0 mm
same,zone of inhibition at 1000 µg/mL,Alternaria alternata; 1.0 mg/ml,0 mm
same,zone of inhibition at 10 µg/mL,Phoma lingam; 0.01 mg/ml,0 mm
same,zone of inhibition at 50 µg/mL,Phoma lingam; 0.05 mg/ml,18 mm
same,zone of inhibition at 500 µg/mL,Phoma lingam; 0.5 mg/ml,42 mm
same,zone of inhibition at 1000 µg/mL,Phoma lingam; 1.0 mg/ml,49 mm
same,inhibition zone Pt,Pyrenophora teres; 0.05 mg/ml,+
same,zone of inhibition at 10 µg/mL,"Pyrenophora teres; Pyrenophora teres, 72 h, 0.01 mg/ml",0 mm
same,zone of inhibition at 500 µg/mL,"Pyrenophora teres; Pyrenophora teres, 72 h, 0.5 mg/ml",35 mm
same,zone of inhibition at 1000 µg/mL,"Pyrenophora teres; Pyrenophora teres, 72 h, 1.0 mg/ml",40 mm
same,zone of inhibition at 10 µg/mL,Phoma betae; 0.01 mg/ml,0 mm
same,zone of inhibition at 50 µg/mL,Phoma betae; 0.05 mg/ml,0 mm
same,zone of inhibition at 500 µg/mL,Phoma betae; 0.5 mg/ml,0 mm
same,zone of inhibition at 1000 µg/mL,Phoma betae; 1.0 mg/ml,0 mm
same,IC50,[1],2.5 µg/mL
same,zone of inhibition at 10 µg/mL,Ascochyta pisi; 0.01 mg/ml,0 mm
same,zone of inhibition at 50 µg/mL,Ascochyta pisi; 0.05 mg/ml,0 mm
same,zone of inhibition at 500 µg/mL,Ascochyta pisi; 0.5 mg/ml,0 mm
same,zone of inhibition at 1000 µg/mL,Ascochyta pisi; 1.0 mg/ml,0 mm
same,appearance of Bc zones,Botrytis cinerea [2]; Bc plates,very diffuse
same,time of incubation after which Bc zones could be seen,Botrytis cinerea [2]; Bc plates,≥ 3 days
same,zone of inhibition at 50 µg/mL,"Botrytis cinerea [2]; Botrytis cinerea, 72 h, 0.05 mg/ml, 15 μl per well, 3 days at 25° C., plates from spores",12 mm
same,zone of inhibition at 500 µg/mL,"Botrytis cinerea [2]; Botrytis cinerea, 72 h, 0.5 mg/ml, 15 μl per well, 3 days at 25° C., plates from spores",48 mm
same,zone of inhibition at 1000 µg/mL,"Botrytis cinerea [2]; Botrytis cinerea, 72 h, 1.0 mg/ml, 15 μl per well, 3 days at 25° C., plates from spores",56 mm
same,activity spectrum,"plant pathogenic fungi; all pathogens tested, Table 2",more effective than the compound of formula IIa
same,number of pathogens against which compound was active,plant pathogenic fungi; with respect to Bc only for the plate containing spores,5 pathogens
same,inhibition zone Bc1,Botrytis cinerea [3]; 0.05 mg/ml,+
same,inhibition zone Bc1,Botrytis cinerea [3]; 0.5 mg/ml,+
same,inhibition zone Bc1,Botrytis cinerea [3]; 1.0 mg/ml,+
same,zone of inhibition at 10 µg/mL,"Botrytis cinerea [3]; Botrytis cinerea, 72 h, 0.01 mg/ml",0 mm
same,zone of inhibition at 10 µg/mL,Monilinia fructigena; 0.01 mg/ml,20 mm
same,zone of inhibition at 50 µg/mL,Monilinia fructigena; 0.05 mg/ml,34 mm
same,zone of inhibition at 500 µg/mL,Monilinia fructigena; 0.5 mg/ml,45 mm
same,zone of inhibition at 1000 µg/mL,Monilinia fructigena; 1.0 mg/ml,50 mm
same,IC50,[4],2 µg/mL
same,protection,Botrytis cinerea [5]; 37 ppm,approx. 10%
same,protection,Botrytis cinerea [5]; 375 ppm,approx. 60%
same,protection,Botrytis cinerea [5]; 1000 ppm,approx. 60%
